According to patent publication US8192962B2, “Processes for detecting toxic substances” (Daikin Industries, Ltd., priority 2001, dated 2012):

Test system: DNA repair protein genes
Assay: DNA chip mRNA expression in yeast, DNA repair protein genes (Table 3)
Format: cell-based, Saccharomyces cerevisiae S288C
Conditions: incubated two hours, concentrations as in the 1st table
In short: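 S. cerevisiae S288C grown at 25° C. in YPD to log phase, then exposed 2 h to a toxicant at a growth-inhibiting, non-lethal concentration; untreated cells as control. Poly(A) mRNA reverse-transcribed with Cy3-dUTP or Cy5-dUTP, hybridized >12 h at 65° C. to whole-genome yeast DNA chip; value = fluorescence ratio treated/untreated.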

## CN(C)C(=S)SSC(=S)N(C)C [(10), Tetramethylthiuram disulfide]
Yeast gene YAL015C
  The level of expressed mRNA in the presence of chemical substance/The level of expressed mRNA in the absence of chemical substance: 2.7
Yeast gene YAR007C
  The level of expressed mRNA in the presence of chemical substance/The level of expressed mRNA in the absence of chemical substance: 1.7
Yeast gene YBL019W
  The level of expressed mRNA in the presence of chemical substance/The level of expressed mRNA in the absence of chemical substance: 1.4
Yeast gene YBR073W
  The level of expressed mRNA in the presence of chemical substance/The level of expressed mRNA in the absence of chemical substance: 1.8
Yeast gene YBR272C
  The level of expressed mRNA in the presence of chemical substance/The level of expressed mRNA in the absence of chemical substance: 2.7
Yeast gene YCR014C
  The level of expressed mRNA in the presence of chemical substance/The level of expressed mRNA in the absence of chemical substance: 1.0
Yeast gene YDL017W
  The level of expressed mRNA in the presence of chemical substance/The level of expressed mRNA in the absence of chemical substance: 1.8
Yeast gene YDL059C
  The level of expressed mRNA in the presence of chemical substance/The level of expressed mRNA in the absence of chemical substance: 7.8
Yeast gene YDL200C
  The level of expressed mRNA in the presence of chemical substance/The level of expressed mRNA in the absence of chemical substance: 1.8
Yeast gene YDR054C
  The level of expressed mRNA in the presence of chemical substance/The level of expressed mRNA in the absence of chemical substance: 3.2
Yeast gene YDR369C
  The level of expressed mRNA in the presence of chemical substance/The level of expressed mRNA in the absence of chemical substance: 1.8
Yeast gene YEL019C
  The level of expressed mRNA in the presence of chemical substance/The level of expressed mRNA in the absence of chemical substance: 0.7
Yeast gene YEL037C
  The level of expressed mRNA in the presence of chemical substance/The level of expressed mRNA in the absence of chemical substance: 1.2
Yeast gene YER162C
  The level of expressed mRNA in the presence of chemical substance/The level of expressed mRNA in the absence of chemical substance: 1.6
Yeast gene YFL014W
  The level of expressed mRNA in the presence of chemical substance/The level of expressed mRNA in the absence of chemical substance: 5.8
Yeast gene YGL058W
  The level of expressed mRNA in the presence of chemical substance/The level of expressed mRNA in the absence of chemical substance: 1.8
Yeast gene YGL091C
  The level of expressed mRNA in the presence of chemical substance/The level of expressed mRNA in the absence of chemical substance: 6.0
Yeast gene YGL127C
  The level of expressed mRNA in the presence of chemical substance/The level of expressed mRNA in the absence of chemical substance: 1.5
Yeast gene YGL163C
  The level of expressed mRNA in the presence of chemical substance/The level of expressed mRNA in the absence of chemical substance: 2.3
Yeast gene YGL249W
  The level of expressed mRNA in the presence of chemical substance/The level of expressed mRNA in the absence of chemical substance: 2.4
Yeast gene YGR180C
  The level of expressed mRNA in the presence of chemical substance/The level of expressed mRNA in the absence of chemical substance: 1.5
Yeast gene YGR231C
  The level of expressed mRNA in the presence of chemical substance/The level of expressed mRNA in the absence of chemical substance: 2.3
Yeast gene YGR258C
  The level of expressed mRNA in the presence of chemical substance/The level of expressed mRNA in the absence of chemical substance: 1.5
Yeast gene YHR164C
  The level of expressed mRNA in the presence of chemical substance/The level of expressed mRNA in the absence of chemical substance: 3.1
Yeast gene YIL036W
  The level of expressed mRNA in the presence of chemical substance/The level of expressed mRNA in the absence of chemical substance: 2.7
Yeast gene YIL072W
  The level of expressed mRNA in the presence of chemical substance/The level of expressed mRNA in the absence of chemical substance: 2.1
Yeast gene YIL143C
  The level of expressed mRNA in the presence of chemical substance/The level of expressed mRNA in the absence of chemical substance: 3.5
Yeast gene YIL153W
  The level of expressed mRNA in the presence of chemical substance/The level of expressed mRNA in the absence of chemical substance: 1.1
Yeast gene YIR002C
  The level of expressed mRNA in the presence of chemical substance/The level of expressed mRNA in the absence of chemical substance: 1.4
Yeast gene YJL026W
  The level of expressed mRNA in the presence of chemical substance/The level of expressed mRNA in the absence of chemical substance: 1.1
Yeast gene YJR046W
  The level of expressed mRNA in the presence of chemical substance/The level of expressed mRNA in the absence of chemical substance: 2.4
Yeast gene YJR052W
  The level of expressed mRNA in the presence of chemical substance/The level of expressed mRNA in the absence of chemical substance: 2.3
Yeast gene YKL145W
  The level of expressed mRNA in the presence of chemical substance/The level of expressed mRNA in the absence of chemical substance: 2.7
Yeast gene YLR103C
  The level of expressed mRNA in the presence of chemical substance/The level of expressed mRNA in the absence of chemical substance: 0.5
Yeast gene YLR233C
  The level of expressed mRNA in the presence of chemical substance/The level of expressed mRNA in the absence of chemical substance: 0.5
Yeast gene YLR288C
  The level of expressed mRNA in the presence of chemical substance/The level of expressed mRNA in the absence of chemical substance: 1.3
Yeast gene YML032C
  The level of expressed mRNA in the presence of chemical substance/The level of expressed mRNA in the absence of chemical substance: 1.1
Yeast gene YML058W
  The level of expressed mRNA in the presence of chemical substance/The level of expressed mRNA in the absence of chemical substance: 1.2
Yeast gene YMR035W
  The level of expressed mRNA in the presence of chemical substance/The level of expressed mRNA in the absence of chemical substance: 1.6
Yeast gene YMR072W
  The level of expressed mRNA in the presence of chemical substance/The level of expressed mRNA in the absence of chemical substance: 1.2
Yeast gene YMR096W
  The level of expressed mRNA in the presence of chemical substance/The level of expressed mRNA in the absence of chemical substance: 3.7
Yeast gene YMR284W
  The level of expressed mRNA in the presence of chemical substance/The level of expressed mRNA in the absence of chemical substance: 1.8
Yeast gene YNL213C
  The level of expressed mRNA in the presence of chemical substance/The level of expressed mRNA in the absence of chemical substance: 1.5
Yeast gene YNL250W
  The level of expressed mRNA in the presence of chemical substance/The level of expressed mRNA in the absence of chemical substance: 2.3
Yeast gene YNL261W
  The level of expressed mRNA in the presence of chemical substance/The level of expressed mRNA in the absence of chemical substance: 1.5
Yeast gene YNL312W
  The level of expressed mRNA in the presence of chemical substance/The level of expressed mRNA in the absence of chemical substance: 2.5
Yeast gene YOL043C
  The level of expressed mRNA in the presence of chemical substance/The level of expressed mRNA in the absence of chemical substance: 1.8
Yeast gene YOR005C
  The level of expressed mRNA in the presence of chemical substance/The level of expressed mRNA in the absence of chemical substance: 1.5
Yeast gene YOR386W
  The level of expressed mRNA in the presence of chemical substance/The level of expressed mRNA in the absence of chemical substance: 3.0
Yeast gene YPL022W
  The level of expressed mRNA in the presence of chemical substance/The level of expressed mRNA in the absence of chemical substance: 1.6
Yeast gene YPL164C
  The level of expressed mRNA in the presence of chemical substance/The level of expressed mRNA in the absence of chemical substance: 2.0
Yeast gene YPL194W
  The level of expressed mRNA in the presence of chemical substance/The level of expressed mRNA in the absence of chemical substance: 3.1
Yeast gene YPR025C
  The level of expressed mRNA in the presence of chemical substance/The level of expressed mRNA in the absence of chemical substance: 1.7
